Data published in patent US5681954A, “Piperazine derivatives” (Daiichi Pharmaceutical Co., Ltd., priority 1993, dated 1997).

Experiments:
[1] = biological target: T1, Ca/Calmodulin-Dependent PDE (Bos taurus, UniProt P62157); test: Calmodulin (CaM) inhibitory activity: inhibition of CaM-potentiated cyclic nucleotide phosphodiesterase (PDE); assay type: biochemical; settings: CaM and PDE from bovine brain, [3H]-cGMP, 30° C., 10 minutes, pH 7.5; read-out: IC50 (concentration showing 50% inhibition of PDE activity potentiated by CaM)
T1 construct: CaM from bovine brain; from tissue; host or cells: bovine brain

[2] = test system: Nitrogen-induced Hypoxia Model in Mouse; test: Activity on Nitrogen-induced Hypoxia Model in Mouse; assay type: in vivo; settings: 30 mg/kg, p.o., 60 minutes before nitrogen, over control group (100%)
Protocol: Nine to ten mice per group were each orally given […] of a test compound. After 60 minutes from the administration, each mouse was put in a 500 ml-volume transparent container having a vent hole; and nitrogen gas was introduced into the container at a rate of 5000 ml/min. The time from the start of nitrogen introduction to respiratory standstill was measured, and a rate of increase of the time over that of a control group (100%) was obtained.

Compound	IC50 [1] [µM]	Rate of Increase of Survival Time [2] [%]
COc1cc2[nH]nc(CCN3CCN(c4cccc(Cl)c4C)CC3)c2cc1OC [Example 81]	9.4	–
COc1cc2c(CCN3CCN(c4cccc(Cl)c4C)CC3)nn(Cc3c[nH]cn3)c2cc1OC [Example 23, 3-(2-(4-(3-Chloro-2-methylphenyl)-1-piperazinyl)ethyl)-5,6-dimethoxy-1-(4-imidazolylmethyl)-1H-indazole]	5.5	–
COc1ccc(Cn2nc(CCN3CCN(c4cccc(Cl)c4C)CC3)c3cc(OC)c(OC)cc32)cc1OC [Example 17, 3-(2-(4-(3-Chloro-2-methylphenyl)-1-piperazinyl)ethyl)-5,6-dimethoxy-1-(3,4-dimethoxybenzyl)-1H-indazole]	3.1	19.2
